Experimental findings from article PMC12668308, “A Novel Antimalarial Agent that Inhibits Protein Synthesis in Plasmodium falciparum” (Angewandte Chemie (International Ed. in English), 2025) are described below.

Read-outs that look alike come from different tables or passages of the source.

The test system of assay [1] is P. falciparum NF54 strain. The experiment in a line: [3H]-hypoxanthine incorporation assay, asexual blood stage. The assay is classed as cell-based, Plasmodium falciparum. Summed up:
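Parasites in human RBC were exposed to a 6-step twofold compound dilution in hypoxanthine-free medium (final parasitemia 0.3%, haematocrit 1.25%) at 37 °C under 3% O2/4% CO2. After 48 h, [3H]-hypoxanthine (0.25 µCi/well) was added for 24 h and uptake measured by scintillation counting. IC50 came from four-parameter curve fitting.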

For assay [2], the system named is mRNA translation in NF54 trophozoite-stage parasites. The experiment in a line: Surface sensing of translation (SUnSET) assay. The assay is classed as cell-based, Plasmodium falciparum. The following applies: trophozoites 30–35 hpi; 31 at 3x, 50x, 100x IC50; 34 and pyrimethamine at 3x IC50. As for the experimental part:
To confirm the role of 31 as a translation inhibitor, the surface sensing of translation (SUnSET) assay was employed. This involves incubating the culture with a translation inhibitor, puromycin, a structural analogue of aminoacyl tRNA. Puromycin is incorporated in the nascent polypeptide chain and prevents further elongation. When puromcyin is used in sub‐lethal concentrations, incorporation of puromycin in neosynthesized protein correlates with the levels of mRNA translation (Figure 3c, lane2).^[ [27] ^] […] This trend was further confirmed by the quantified western blot signals (Figures 3d and S4C) that are consistent with the iSPP profiling results.
SUnSET: The SUnSET assay was done as described in. ^[27^]Tightly synchronized NF54 wild type parasites were treated with the compounds for 4h at 30-35 hpi (trophozoite stage). The following compounds and amounts used were: cycloheximide (3xIC50, 1,2 µM; Calbiochem), pyrimethamine (3xIC50, 21 nM; MedChemExpress), 34 (3xIC50, 12 µM), and 31 (3xIC50, 12 nM; 50xIC50, 200 nM; 100xIC50, 400 nM). Parasites were incubated with 1 µg mL^-1 (Sigma P8833) for 1 h at 37 °C and saponin lysis was performed.
Saponin lysis and Western blot: Saponin lysis was done on infected RBC at ~5% parasitemia to lyse erythrocytes. Parasite cultures were centrifuged at 1,200 g for 5 min at room temperature. Once the supernatant was discarded, 10 volumes of ice-cold 0.1% (w/v) saponin (Calbiochem 558255, dissolved in PBS, and filtered with 0,22) was added, incubated on ice for 10 min and centrifuged for 2,272 g for 15 min at 4 °C. […] The membrane was washed 3 times in PBS-T (3 min incubation in each washing step) and the signal was detected using the chemiluminescent substrate SuperSignal West Pico Plus (Thermo Scientific, REF 34580) and the imaging system Vilber Fusion FX7 Edge 17.10 SN. Quantification of Western blot signal was done by measuring the integrated density of each lane using ImageJ analysis software (version 1.54p). […]

Setting [3] is: Plasmodium falciparum, NF54, asexual blood stage, mean ± s.d., read-out: PfNF54 IC50 ± s.d.

The IC50 is the concentration that inhibits the measured activity by half. As to `CN1CCN(Cc2ccc(O)c(NC(=O)c3cccc(Oc4cc(C(F)(F)F)ccn4)c3)c2)CC1` [Compound 31, N-(2-hydroxy-5-((4-methylpiperazin-1-yl)methyl)phenyl)-3-((4-(trifluoromethyl)pyridin-2-yl)oxy)benzamide], the “IC50 ratio relative to NF54 strain” value in assay [1] (NF54) was found to be 1.00. The half-inhibitory concentration (IC50) in assay [1] (Plasmodium falciparum, NF54, 72 h, Table S2, NF54 sensitive strain, 72-h assay, mean±s.d., read-out: IC50) was 1.8 ± 0.3 nM; in assay [1] (setting [3]), less than 5 nM; in assay [1] (asexual blood stage, mean ± s.d., read-out: PfNF54 IC50 ± s.d.), 3.9 nM. Further, the “mRNA translation (puromycin incorporation)” value in assay [2] is “concentration‐dependent reduction in translation”.
As for `O=C(Nc1cc(CN2CCOCC2)ccc1F)c1cccc(Oc2cc(C(F)(F)F)ccn2)c1` [Compound 34, N-(2-Fluoro-5-(morpholinomethyl)phenyl)-3-((4-(trifluoromethyl)pyridin-2-yl)oxy)benzamide], the “fold lower activity (control compound vs 31)” value in assay [1] (PfNF54 IC50) is on record as 1000 fold. Further, the half-maximal inhibitory concentration (IC50) in assay [1] (setting [3]) came out at 3730 nM. In assay [2], the “mRNA translation (puromycin incorporation)” value is on record as “did not reduce mRNA translation”.
